Results reported in patent publication US20240252677A1, “ONE-COMPONENT DELIVERY SYSTEM FOR NUCLEIC ACIDS” (The Trustees of the University of Pennsylvania, priority 2021, published 2024).

Experiments:
[1] = Dimensions (size, PDI) of DNPs co-assembled from IAJDs and Luc-mRNA by DLS; assay type: physicochemical
In short: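 Hydrodynamic size and PDI were read by dynamic light scattering at 23 °C, 175° backscatter, 633 nm. Particles formed by fast injection of ethanolic IAJD stock (80 mg/mL) into nucleoside-modified luciferase mRNA (stock 4.0 mg/mL) in 10 mM acetate pH 4.0, 5 s vortex.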

BALB/c mice = experiment: In vivo mRNA delivery in mice with DNPs, whole-body bioluminescence imaging (IVIS)
Experimental: (§1) The exposure time was 1 min.
Luminescence characterization for in vivo transfection experiments employed bioluminescence imaging with an IVIS Spectrum imaging system (PerkinElmer, Waltham, MA). Mice were anesthetized with 3% of isoflurane (Piramal Healthcare Limited) and intraperitoneally (i.p.) administered with D-luciferin (Regis Technologies) at a dose of 150 mg/kg of body weight. Ten minutes post administration of D-luciferin, mice were placed on the imaging platform while being maintained on isoflurane via a nose cone and imaged using an exposure time of 60 seconds. […] To quantify luminescent flux, an oval ROI was placed over each organ of interest and analyzed.
(§2) Tissue luminescence signal was measured on the IVIS imaging system using an exposure time of 60 seconds using medium binning (binning=8) to ensure that the signal obtained was within operative detection range. […] Bioluminescence imaging was performed as described above.
Luminescence Characterization for In Vivo Transfection Experiments: bioluminescence imaging was performed with an IVIS Spectrum imaging system (PerkinElmer, Waltham, MA).

spleen = experiment: In vivo mRNA delivery, IVIS imaging of organs: spleen; parameters: species or system mice; key to Organs with luminescence: spleen: strong: Strong meant the luminescence intensity in that organ was relatively high, compared to other organs; weak: Weak meant the luminescence intensity in that organ was relatively low, compared to other organs; details: for Organs with luminescence: spleen (weak/strong): Table 14; for Organs with luminescence: spleen: Table 17, mice, IVIS, 4-6 h after injection, intensity relative to other organs
lung = experiment: In vivo mRNA delivery, IVIS imaging of organs: lung; parameters: species or system mice; key to Organs with luminescence: lung: strong: Strong meant the luminescence intensity in that organ was relatively high, compared to other organs; weak: Weak meant the luminescence intensity in that organ was relatively low, compared to other organs; details: for Organs with luminescence: lung (weak/strong): Table 14; for Organs with luminescence: lung: Table 17, mice, IVIS, 4-6 h after injection, intensity relative to other organs
liver = experiment: In vivo mRNA delivery, IVIS imaging of organs: liver; parameters: species or system mice; key to Organs with luminescence: liver: strong: Strong meant the luminescence intensity in that organ was relatively high, compared to other organs; weak: Weak meant the luminescence intensity in that organ was relatively low, compared to other organs; details: for Organs with luminescence: liver (weak/strong): Table 14; for Organs with luminescence: liver: Table 17, mice, IVIS, 4-6 h after injection, intensity relative to other organs
Experimental: as §1, §2
Tissue luminescence signal was measured on the IVIS imaging system using a certain exposure time (60, 30 or 15 seconds) and medium binning (binning=8) to ensure that the signal obtained was within operative detection range.

[2] = Stability of DNPs by DLS after storage at 5° C.; assay type: physicochemical; parameters: key to Original size distribution type (DLS curve) / Size distribution type (DLS curve): U: DLS curve showed unimodal size distribution; B: DLS curve showed bimodal size distribution; M: DLS curve showed multimodal size distribution; details: for pH Sample: DNPs: IAJD 4.0 mg/mL + Luc-mRNA 0.1 mg/mL, injection in acetate buffer pH 4.00; for PDI / Size (d, nm) / Original size distribution type (DLS curve): IAJD 4.0 mg/mL + Luc-mRNA 0.1 mg/mL; for PDI / Size (d, nm): acetate buffer; for Original size distribution type (DLS curve): before storage, acetate buffer pH 4.00
In short: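 DNPs in acetate buffer sized by DLS after storage at 5 °C. Stability ranked Excellent, Good or Not stable according to retention, shrinkage or growth of original size and narrowing or broadening of size distribution.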

[3] = Table 12, DNPs, IAJD 4 mg/mL + Luc-mRNA 0.10 mg/mL, acetate buffer 10 mM pH 4.0
[4] = Table 13, DNPs, IAJD 4 mg/mL + Luc-mRNA 0.10 mg/mL, acetate buffer pH 4.0
[5] = Table 14, DNPs, IAJD 4 mg/mL + Luc-mRNA 0.10 mg/mL, acetate buffer pH 4.0
[6] = Table 17, DNPs used in vivo, IAJD 4 mg/mL, Luc-mRNA 0.10 mg/mL, acetate pH 4.0
[7] = Table 16, DNPs from IAJD 4 mg/mL and Luc-mRNA 0.10 mg/mL by injection in acetate buffer (10 mM, pH 4.0)

| PDI [1, 3] | Size (d, nm) [1, 3] [nm] | PDI [1, 4] | Size (d, nm) [1, 4] [nm] | PDI [1, 5] | Size (d, nm) [1, 5] [nm] | PDI [1, 6] | Size (d, nm) [1, 6] [nm] | pH Sample [2] | Original size distribution type (DLS curve) [2] | PDI [1, 7] | Size (d, nm) [1, 7] [nm] | Structure (SMILES) | In vivo activity (total flux, p/s) (BALB/c mice; Table 19, nonsymmetric IAJDs) | Organs with luminescence: spleen (weak/strong) (spleen; imaging 6 h after injection) | Organs with luminescence: spleen (spleen) | Organs with luminescence: lung (weak/strong) (lung; imaging 6 h after injection) | Organs with luminescence: lung (lung) | Organs with luminescence: liver (weak/strong) (liver; imaging 6 h after injection) | Organs with luminescence: liver (liver) | further results |
| --- | --- | --- | --- | --- | --- | --- | --- | --- | --- | --- | --- | --- | --- | --- | --- | --- | --- | --- | --- | --- |
| 0.234 | 91 | 0.234 | 91 | 0.234 | 91 | 0.234 | 91 |  |  |  |  | CCCCCCCCCCCCCCCCOc1cc(COC(=O)CCCN2CCN(C)CC2)cc(OCCCCCCCCCCC)c1 [IAJD 86, 3-(Hexadecyloxy)-5-(undecyloxy)benzyl 4-(4-methylpiperazin-1-yl)butanoate] | 4.73 × 10^7 p/s |  | spleen (weak) |  | Lung (weak), |  | liver (strong), | Organs with luminescence: spleen (weak/strong) (spleen; imaging 5 h after injection): spleen (weak); Organs with luminescence: lung (weak/strong) (lung; imaging 5 h after injection): Lung (weak),; Organs with luminescence: liver (weak/strong) (liver; imaging 5 h after injection): liver (strong), |
| 0.294 | 94 | 0.294 | 94 | 0.294 | 94 | 0.294 | 94 |  |  |  |  | CCCCCCCCCCCCCCOc1cc(COC(=O)CCCN2CCN(C)CC2)cc(OCCCCCCCCCCC)c1 [IAJD 105, 3-(Tetradecyloxy)-5-(undecyloxy)benzyl 4-(4-methylpiperazin-1-yl)butanoate] | 4.74 × 10^7 p/s | spleen (weak) | spleen (weak) | Lung (weak), | Lung (weak), | liver (strong), | liver (strong), |  |
|  |  |  |  |  |  | 0.264 | 150 | 4.47 | (U) | 0.264 | 150 | CCCCCCCCCCCCCOc1cc(COC(=O)CCCN2CCN(C)CC2)cc(OCCCCCCCCCCC)c1 [IAJD 116, 3-(Tridecyloxy)-5-(undecyloxy)benzyl 4-(4-methylpiperazin-1-yl)butanoate] | 2.38 × 10^7 p/s |  | spleen (strong) |  | Lung (weak), |  | liver (weak), | Size distribution type (DLS curve) ([2]; after 62 days at 5° C.): (U); PDI ([2]; after 62 days at 5° C.): 0.272; Size (d, nm) ([2]; after 62 days at 5° C.): 168 nm |

Further lines, the compound ahead of its results:

| Structure (SMILES) | PDI [1, 3] | Size (d, nm) [1, 3] [nm] | PDI [1, 4] | Size (d, nm) [1, 4] [nm] | PDI [1, 5] | Size (d, nm) [1, 5] [nm] | PDI [1, 6] | Size (d, nm) [1, 6] [nm] | pH Sample [2] | Original size distribution type (DLS curve) [2] | PDI [1, 7] | Size (d, nm) [1, 7] [nm] | In vivo activity (total flux, p/s) (BALB/c mice; Table 19, nonsymmetric IAJDs) | Organs with luminescence: spleen (weak/strong) (spleen; imaging 6 h after injection) | Organs with luminescence: spleen (spleen) | Organs with luminescence: lung (weak/strong) (lung; imaging 6 h after injection) | Organs with luminescence: lung (lung) | Organs with luminescence: liver (weak/strong) (liver; imaging 6 h after injection) | Organs with luminescence: liver (liver) | further results |
| --- | --- | --- | --- | --- | --- | --- | --- | --- | --- | --- | --- | --- | --- | --- | --- | --- | --- | --- | --- | --- |
| CCCCCCCCCCCCCCCCCCOc1cc(COC(=O)CCCN2CCN(C)CC2)cc(OCCCCCCCCCCC)c1 [IAJD 81, 3-(Octadecyloxy)-5-(undecyloxy)benzyl 4-(4-methylpiperazin-1-yl)butanoate] | 0.287 | 111 | 0.287 | 111 | 0.287 | 111 | 0.287 | 111 |  |  |  |  | 2.32 × 10^7 p/s | spleen (weak) | spleen (weak) | Lung (weak), | Lung (weak), | liver (strong), | liver (strong), | In vivo activity (total flux, p/s) (BALB/c mice; Table 20, nonsymmetric IAJDs and MC3-Luc-mRNA): 2.32 × 10^7 p/s |
| CCCCCCCCCCCCCCCCOc1cc(COC(=O)CCCN2CCN(C)CC2)cc(OCCCCCCCCCCCC)c1 [IAJD 106, 3-(Dodecyloxy)-5-(hexadecyloxy)benzyl 4-(4-methylpiperazin-1-yl)butanoate] | 0.275 | 105 | 0.275 | 105 | 0.275 | 105 | 0.275 | 105 |  |  |  |  | 3.48 × 10^7 p/s | spleen (strong) | spleen (strong) | Lung (weak), | Lung (weak), | liver (weak), | liver (weak), |  |
| CCCCCCCCCCCCCCCCCCOc1cc(COC(=O)CCCN2CCN(C)CC2)cc(OCCCCCCCCCCCC)c1 [IAJD 107, 3-(Dodecyloxy)-5-(octadecyloxy)benzyl 4-(4-methylpiperazin-1-yl)butanoate] | 0.279 | 146 | 0.279 | 146 | 0.279 | 146 | 0.279 | 146 |  |  |  |  | 2.19 × 10^7 p/s | spleen (strong) | spleen (strong) | Lung (weak), | Lung (weak), | liver (weak), | liver (weak), |  |
| CCCCCCCCCCCOc1cc(COC(=O)CCCN2CCN(C)CC2)cc(OCCCCCCCCCC)c1 [IAJD 114, 3-(Decyloxy)-5-(undecyloxy)benzyl 4-(4-methylpiperazin-1-yl)butanoate] |  |  |  |  |  |  | 0.351 | 105 | 4.46 | (U) | 0.351 | 105 | 3.56 × 10^6 p/s |  | spleen (strong) |  | Lung (weak), |  | liver (weak), | Size distribution type (DLS curve) ([2]; after 75 days at 5° C.): (B); PDI ([2]; after 75 days at 5° C.): 0.369; Size (d, nm) ([2]; after 75 days at 5° C.): 107 nm |
| CCCCCCCCCCCCCOc1cc(COC(=O)CCCN2CCN(CCO)CC2)cc(OCCCCCCCCCCC)c1 [IAJD 117, 3-(Tridecyloxy)-5-(undecyloxy)benzyl 4-(4-(2-hydroxyethyl)piperazin-1-yl)butanoate] |  |  |  |  |  |  | 0.367 | 255 | 4.40 | (B) | 0.367 | 255 | 8.64 × 10^6 p/s |  | spleen (strong) |  | Lung (weak), |  | liver (weak), | Size distribution type (DLS curve) ([2]; after 70 days at 5° C.): (B); PDI ([2]; after 70 days at 5° C.): 0.312; Size (d, nm) ([2]; after 70 days at 5° C.): 323 nm |
| CCCCCCCCCCCCCCCCCOc1cc(COC(=O)CCCN2CCN(CCO)CC2)cc(OCCCCCCCCCCCCCCC)c1 [IAJD 152, 3-(Heptadecyloxy)-5-(pentadecyloxy)benzyl 4-(4-(2-hydroxyethyl)piperazin-1-yl)butanoate] |  |  |  |  |  |  | 0.370 | 281 | 4.45 | (B) | 0.370 | 281 | 1.97 × 10^7 p/s |  | spleen (strong) |  |  |  | Liver (weak), | Size distribution type (DLS curve) ([2]; after 35 days at 5° C.): (U); PDI ([2]; after 35 days at 5° C.): 0.286; Size (d, nm) ([2]; after 35 days at 5° C.): 253 nm |
